The values below are quoted from earlier work in US5831004A, “Inhibitors of metalloproteases, pharmaceutical compositions comprising same and methods of their use” (Affymax Technologies N.V., priority 1995, dated 1998).

This data set addresses T1, human rheumatoid synovial collagenase (Homo sapiens, UniProt P03956).
T1 sequence (P03956 100-469): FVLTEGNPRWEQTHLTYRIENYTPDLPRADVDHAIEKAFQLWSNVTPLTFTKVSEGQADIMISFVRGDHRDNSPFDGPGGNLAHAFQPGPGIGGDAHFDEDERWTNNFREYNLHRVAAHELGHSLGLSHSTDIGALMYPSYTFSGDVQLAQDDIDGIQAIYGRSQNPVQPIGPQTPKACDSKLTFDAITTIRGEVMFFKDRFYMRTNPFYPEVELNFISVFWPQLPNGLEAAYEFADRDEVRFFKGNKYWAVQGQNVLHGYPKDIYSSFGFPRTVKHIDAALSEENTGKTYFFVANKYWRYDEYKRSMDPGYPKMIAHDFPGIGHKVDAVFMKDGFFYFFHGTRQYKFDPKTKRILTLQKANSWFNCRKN
Conditions: cited from earlier work.

Bounds are passed on as bounds.

As to `CNC(=O)[C@H](Cc1ccc(OC)cc1)NC(=O)[C@H](CC(C)C)NC(CCNC(=O)OCc1ccccc1)C(=O)O` (stereo partly drawn) [N-[3-(benzyloxy-carbonyl)amino-1-carboxy-n-propyl]-L-leucyl-O-methyl-L-tyrosine, N-methylamide], the 50% inhibitory concentration (IC50) is less than 8 µM.
